According to patent publication US10821115B2, “Compounds that inhibit Mcl-1 protein” (priority 2017, dated 2020):
Where two headings read alike, the source gives them in different places.

Assays:
[1] = biological target: recombinant human Mcl-1 (residues 171-327) / Bim interaction (Homo sapiens (Human), UniProt Q07820); experiment: biochemical; assay type: binding; settings: TR-FRET, Mcl-1(171-327) / biotin-Bim (51-76); read-out: Mcl-1 HTRF IC50
[2] = tested on: human multiple myeloma cell line, OPM-2; experiment: Cell viability assay (OPM-2 10 FBS), CellTiter-Glo; assay type: cell-based
How it was run: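 Cells were seeded at 3000 cells/well in RPMI 1640 with 10% FBS and exposed to serially diluted compounds for 16 h at 37 °C, 5% CO2.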

[3] = Homo sapiens, OPM-2, 16 h, read-out: OPM-2 10% FBS IC50 IP, OPM-2 cells, 10% FBS, 16 h, CellTiter-Glo
[4] = read-out: OPM-2 10% FBS IC50 IP, OPM-2 cells, 10% FBS, 16 h, CellTiter-Glo

Sequence of recombinant human Mcl-1 (residues 171-327) / Bim interaction (Q07820 171-327): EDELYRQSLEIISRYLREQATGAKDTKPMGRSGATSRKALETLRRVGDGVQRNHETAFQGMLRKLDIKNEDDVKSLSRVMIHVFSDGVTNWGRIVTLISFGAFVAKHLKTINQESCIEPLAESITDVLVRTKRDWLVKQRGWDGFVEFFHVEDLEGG

SMILES | IC50 [1] [nM] | IC50 [2, 3] [nM] | IC50 [2, 4] [nM]
CO[C@@]1(CCN2CCCCC2)/C=C/C[C@H](C)[C@@H](C)S(=O)(=O)NC(=O)c2ccc3c(c2)N(C[C@@H]2CC[C@H]21)C[C@@]1(CCCc2cc(Cl)ccc21)CO3 [Example 100428, (1S,3′R,6′R,7′S,8′E,11′S,12′R)-6-chloro-7′-methoxy-11′,12′-dimethyl-7′-(2-(1-piperidinyl)ethyl)-3,4-dihydro-2H,15′H-spiro[naphthalene-1,22′-[20]oxa[13]thia[1,14]diazatetracyclo [14.7.2.0~3,6~.0~19,24~]pentacosa[8,16,18,24]tetraen]-15′-one 13′,13′-dioxide] | 0.21 | 218 | –
CO[C@@]1(CCN2CCN3CCOC[C@@H]3C2)/C=C/C[C@H](C)[C@@H](C)S(=O)(=O)NC(=O)c2ccc3c(c2)N(C[C@@H]2CC[C@H]21)C[C@@]1(CCCc2cc(Cl)ccc21)CO3 [Example 100429, (1S,3′R,6′R,7′S,8′E,11′S,12′R)-6-chloro-7′-(2-((9aS)-hexahydropyrazino[2,1-c][1,4]oxazin-8(1H)-yl)ethyl)-7′-methoxy-11′,12′-dimethyl-3,4-dihydro-2H,15′H-spiro[naphthalene-1,22′-[20]oxa[13]thia[1,14]diazatetracyclo [14.7.2.0~3,6~.0~19,24~]pentacosa[8,16,18,24]tetraen]-15′-one 13′,13′-dioxide] | 0.176 | 1420 | –
CO[C@@]1(CCN2CCN(C)C(=O)C2)/C=C/C[C@H](C)[C@@H](C)S(=O)(=O)NC(=O)c2ccc3c(c2)N(C[C@@H]2CC[C@H]21)C[C@@]1(CCCc2cc(Cl)ccc21)CO3 [Example 100430, (1S,3′R,6′R,7′S,8′E,11′S,12′R)-6-chloro-7′-methoxy-11′,12′-dimethyl-7′-(2-(4-methyl-3-oxo-1-piperazinyl)ethyl)-3,4-dihydro-2H,15′H-spiro[naphthalene-1,22′-[20]oxa[13]thia[1,14]diazatetracyclo [14.7.2.0~3,6~.0~19,24~]pentacosa[8,16,18,24]tetraen]-15′-one 13′,13′-dioxide] | 0.057 | 358 | –
CO[C@@]1(CCN2CC(C)(N(C)C)C2)/C=C/C[C@H](C)[C@@H](C)S(=O)(=O)NC(=O)c2ccc3c(c2)N(C[C@@H]2CC[C@H]21)C[C@@]1(CCCc2cc(Cl)ccc21)CO3 [Example 100431, (1S,3′R,6′R,7′S,8′E,11′S,12′R)-6-chloro-7′-(2-(3-(dimethylamino)-3-methyl-1-azetidinyl)ethyl)-7′-methoxy-11′,12′-dimethyl-3,4-dihydro-2H,15′H-spiro[naphthalene-1,22′-[20]oxa[13]thia[1,14]diazatetracyclo [14.7.2.0~3,6~.0~19,24~]pentacosa[8,16,18,24]tetraen]-15′-one 13′,13′-dioxide] | 0.043 | 290 | –
C[C@@H]1[C@@H](C)C/C=C/[C@@](O)(C#CCC2CCOCC2)[C@@H]2CC[C@H]2CN2C[C@@]3(CCCc4cc(Cl)ccc43)COc3ccc(cc32)C(=O)NS1(=O)=O [Example 100432, (1S,3′R,6′R,7′S,8′E,11′S,12′R)-6-chloro-7′-hydroxy-11′,12′-dimethyl-7′-(3-(tetrahydro-2H-pyran-4-yl)-1-propyn-1-yl)-3,4-dihydro-2H,15′H-spiro[naphthalene-1,22′-[20]oxa[13]thia[1,14]diazatetracyclo [14.7.2.0~3,6~.0~19,24~]pentacosa[8,16,18,24]tetraen]-15′-one 13′,13′-dioxide] | 0.228 | 711 | –
C[C@@H]1[C@@H](C)C/C=C/[C@](O)(C#CCC2CCOCC2)[C@@H]2CC[C@H]2CN2C[C@@]3(CCCc4cc(Cl)ccc43)COc3ccc(cc32)C(=O)NS1(=O)=O [Example 100433, (1S,3′R,6′R,7′R,8′E,11′S,12′R)-6-chloro-7′-hydroxy-11′,12′-dimethyl-7′-(3-(tetrahydro-2H-pyran-4-yl)-1-propyn-1-yl)-3,4-dihydro-2H,15′H-spiro[naphthalene-1,22′-[20]oxa[13]thia[1,14]diazatetracyclo [14.7.2.0~3,6~.0~19,24~]pentacosa[8,16,18,24]tetraen]-15′-one 13′,13′-dioxide] | 0.026 | 296 | –
CO[C@@]1(C[C@@H](C)O)/C=C/C[C@H](C)[C@@H](C)S(=O)(=O)NC(=O)c2ccc3c(c2)N(C[C@@H]2CC[C@H]21)C[C@@]1(CCCc2cc(Cl)ccc21)CO3 [Example 100435, (1S,3′R,6′R,7′S,8′E,11′S,12′R)-6-chloro-7′-((2R)-2-hydroxypropyl)-7′-methoxy-11′,12′-dimethyl-3,4-dihydro-2H,15′H-spiro[naphthalene-1,22′-[20]oxa[13]thia[1,14]diazatetracyclo [14.7.2.0~3,6~.0~19,24~]pentacosa[8,16,18,24]tetraen]-15′-one 13′,13′-dioxide] | 0.055 | 305 | –
CO[C@@]1(C[C@@H](C)O)/C=C/C[C@H](C)[C@@H](C)S(=O)(=O)NC(=O)c2ccc3c(c2)N(C[C@@H]2CC[C@H]21)C[C@@]1(CCCc2cc(Cl)ccc21)CO3 [Example 100436, (1S,3′R,6′R,7′S,8′E,11′S,12′R)-6-chloro-7′-((2R)-2-hydroxypropyl)-7′-methoxy-11′,12′-dimethyl-3,4-dihydro-2H,15′H-spiro[naphthalene-1,22′-[20]oxa[13]thia[1,14]diazatetracyclo [14.7.2.0~3,6~.0~19,24~]pentacosa[8,16,18,24]tetraen]-15′-one 13′,13′-dioxide] | 0.076 | – | 335
C/C=C/C[C@]1(OC)/C=C/C[C@H](C)[C@@H](C)S(=O)(=O)NC(=O)c2ccc3c(c2)N(C[C@@H]2CC[C@H]21)C[C@@]1(CCCc2cc(Cl)ccc21)CO3 [Example 100438, (1S,3′R,6′R,7′S,8′E,11′S,12′R)-7′-((2E)-2-buten-1-yl)-6-chloro-7′-methoxy-11′,12′-dimethyl-3,4-dihydro-2H,15′H-spiro[naphthalene-1,22′-[20]oxa[13]thia[1,14]diazatetracyclo [14.7.2.0~3,6~.0~19,24~]pentacosa[8,16,18,24]tetraen]-15′-one 13′,13′-dioxide] | 0.169 | 547 | –
C[C@@H]1[C@@H](C)C/C=C/[C@@](O)(C#CCCc2ccccn2)[C@@H]2CC[C@H]2CN2C[C@@]3(CCCc4cc(Cl)ccc43)COc3ccc(cc32)C(=O)NS1(=O)=O [Example 100440, (1S,3′R,6′R,7′S,8′E,11′S,12′R)-6-chloro-7′-hydroxy-11′,12′-dimethyl-7′-(4-(2-pyridinyl)-1-butyn-1-yl)-3,4-dihydro-2H,15′H-spiro[naphthalene-1,22′-[20]oxa[13]thia[1,14]diazatetracyclo [14.7.2.0~3,6~.0~19,24~]pentacosa[8,16,18,24]tetraen]-15′-one 13′,13′-dioxide] | 0.398 | – | 354
CO[C@@]1(CSC(C)C)/C=C/C[C@H](C)[C@@H](C)S(=O)(=O)NC(=O)c2ccc3c(c2)N(C[C@@H]2CC[C@H]21)C[C@@]1(CCCc2cc(Cl)ccc21)CO3 [Example 100441, (1S,3′R,6′R,7′S,8′E,11′S,12′R)-6-chloro-7′-methoxy-11′,12′-dimethyl-7′-((2-propanylsulfanyl)methyl)-3,4-dihydro-2H,15′H-spiro[naphthalene-1,22′-[20]oxa[13]thia[1,14]diazatetracyclo [14.7.2.0~3,6~.0~19,24~]pentacosa[8,16,18,24]tetraen]-15′-one 13′,13′-dioxide] | 0.133 | 154 | –
CC(C)OC[C@]1(O)/C=C/C[C@H](C)[C@@H](C)S(=O)(=O)NC(=O)c2ccc3c(c2)N(C[C@@H]2CC[C@H]21)C[C@@]1(CCCc2cc(Cl)ccc21)CO3 [Example 100442, (1S,3′R,6′R,7′S,8′E,11′S,12′R)-6-chloro-7′-hydroxy-11′,12′-dimethyl-7′-((2-propanyloxy)methyl)-3,4-dihydro-2H,15′H-spiro[naphthalene-1,22′-[20]oxa[13]thia[1,14]diazatetracyclo [14.7.2.0~3,6~.0~19,24~]pentacosa[8,16,18,24]tetraen]-15′-one 13′,13′-dioxide] | 0.921 | 3870 | –
COCCOC[C@]1(O)/C=C/C[C@H](C)[C@@H](C)S(=O)(=O)NC(=O)c2ccc3c(c2)N(C[C@@H]2CC[C@H]21)C[C@@]1(CCCc2cc(Cl)ccc21)CO3 [Example 100444, (1S,3′R,6′R,7′S,8′E,11′S,12′R)-6-chloro-7′-hydroxy-7′-((2-methoxyethoxy)methyl)-11′,12′-dimethyl-3,4-dihydro-2H,15′H-spiro[naphthalene-1,22′-[20]oxa[13]thia[1,14]diazatetracyclo [14.7.2.0~3,6~.0~19,24~]pentacosa[8,16,18,24]tetraen]-15′-one 13′,13′-dioxide] | 0.098 | 646 | –
COCCOC[C@@]1(O)/C=C/C[C@H](C)[C@@H](C)S(=O)(=O)NC(=O)c2ccc3c(c2)N(C[C@@H]2CC[C@H]21)C[C@@]1(CCCc2cc(Cl)ccc21)CO3 [Example 100445, (1S,3′R,6′R,7′R,8′E,11′S,12′R)-6-chloro-7′-hydroxy-7′-((2-methoxyethoxy)methyl)-11′,12′-dimethyl-3,4-dihydro-2H,15′H-spiro[naphthalene-1,22′-[20]oxa[13]thia[1,14]diazatetracyclo [14.7.2.0~3,6~.0~19,24~]pentacosa[8,16,18,24]tetraen]-15′-one 13′,13′-dioxide] | 0.04 | 98 | –
CO[C@@]1(CC(C)=O)/C=C/C[C@H](C)[C@@H](C)S(=O)(=O)NC(=O)c2ccc3c(c2)N(C[C@@H]2CC[C@H]21)C[C@@]1(CCCc2cc(Cl)ccc21)CO3 [Example 100446, (1S,3′R,6′R,7′S,8′E,11′S,12′R)-6-chloro-7′-methoxy-11′,12′-dimethyl-7′-(2-oxopropyl)-3,4-dihydro-2H,15′H-spiro[naphthalene-1,22′-[20]oxa[13]thia[1,14]diazatetracyclo [14.7.2.0~3,6~.0~19,24~]pentacosa[8,16,18,24]tetraen]-15′-one 13′,13′-dioxide] | 0.126 | 345 | –
